Eight compounds from the Kinase Knowledgebase extract (Sharma et al. 2016) can be followed below.

For assay [1], the target named is PIK3CB (Human) (UniProt P42338). Put plainly: Enzyme Assay.
In assay [2] the target is PIK3CD (Human) (UniProt O00329). Put plainly: Enzyme Assay.
A further assay addresses PIK3CG (human) (UniProt P48736). Put plainly: Enzyme Assay.
The target in assay [3] is PIK3CD (Human) (UniProt O00329). Put plainly: Cell-Based Assay. The settings on record: raji.
The target of assay [4] is PIK3CA (human) (UniProt P42336). Put plainly: Enzyme Assay.
Sequence of PIK3CA (human) (P42336 whole entry, looked up): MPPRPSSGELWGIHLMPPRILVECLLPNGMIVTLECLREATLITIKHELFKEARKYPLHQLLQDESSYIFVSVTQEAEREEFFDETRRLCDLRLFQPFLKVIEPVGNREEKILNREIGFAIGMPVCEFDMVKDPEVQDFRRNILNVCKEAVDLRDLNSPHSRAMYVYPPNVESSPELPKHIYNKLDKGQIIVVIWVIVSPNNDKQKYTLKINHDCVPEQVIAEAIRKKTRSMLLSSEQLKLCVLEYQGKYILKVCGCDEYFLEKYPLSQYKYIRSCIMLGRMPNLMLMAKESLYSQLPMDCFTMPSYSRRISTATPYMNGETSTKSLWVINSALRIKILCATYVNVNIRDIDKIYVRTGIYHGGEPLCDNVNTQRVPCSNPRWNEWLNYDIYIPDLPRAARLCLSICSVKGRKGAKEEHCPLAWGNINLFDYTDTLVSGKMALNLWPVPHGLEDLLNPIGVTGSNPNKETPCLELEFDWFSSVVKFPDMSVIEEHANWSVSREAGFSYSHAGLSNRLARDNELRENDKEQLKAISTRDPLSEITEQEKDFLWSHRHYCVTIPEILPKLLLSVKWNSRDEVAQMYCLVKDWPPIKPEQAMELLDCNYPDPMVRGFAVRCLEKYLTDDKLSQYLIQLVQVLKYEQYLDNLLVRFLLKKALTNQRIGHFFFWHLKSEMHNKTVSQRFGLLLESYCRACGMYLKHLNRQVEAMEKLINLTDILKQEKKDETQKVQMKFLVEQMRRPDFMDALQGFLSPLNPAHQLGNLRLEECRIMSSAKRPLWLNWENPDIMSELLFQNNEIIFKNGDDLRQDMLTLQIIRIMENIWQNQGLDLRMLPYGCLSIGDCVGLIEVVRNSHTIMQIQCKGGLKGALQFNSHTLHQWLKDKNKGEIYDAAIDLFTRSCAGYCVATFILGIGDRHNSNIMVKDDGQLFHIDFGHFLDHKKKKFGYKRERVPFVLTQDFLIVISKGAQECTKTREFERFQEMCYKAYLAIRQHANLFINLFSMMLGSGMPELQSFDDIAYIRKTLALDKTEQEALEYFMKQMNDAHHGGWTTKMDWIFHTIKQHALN
Assay [5] shares this target. Description: Cell-Based Assay. The settings on record: skov-3.
Assay [6] addresses PIK3CB (Human) (UniProt P42338). Description: Cell-Based Assay. The following applies: 786-o.

Sequence of PIK3CD (Human) (O00329 whole entry, looked up): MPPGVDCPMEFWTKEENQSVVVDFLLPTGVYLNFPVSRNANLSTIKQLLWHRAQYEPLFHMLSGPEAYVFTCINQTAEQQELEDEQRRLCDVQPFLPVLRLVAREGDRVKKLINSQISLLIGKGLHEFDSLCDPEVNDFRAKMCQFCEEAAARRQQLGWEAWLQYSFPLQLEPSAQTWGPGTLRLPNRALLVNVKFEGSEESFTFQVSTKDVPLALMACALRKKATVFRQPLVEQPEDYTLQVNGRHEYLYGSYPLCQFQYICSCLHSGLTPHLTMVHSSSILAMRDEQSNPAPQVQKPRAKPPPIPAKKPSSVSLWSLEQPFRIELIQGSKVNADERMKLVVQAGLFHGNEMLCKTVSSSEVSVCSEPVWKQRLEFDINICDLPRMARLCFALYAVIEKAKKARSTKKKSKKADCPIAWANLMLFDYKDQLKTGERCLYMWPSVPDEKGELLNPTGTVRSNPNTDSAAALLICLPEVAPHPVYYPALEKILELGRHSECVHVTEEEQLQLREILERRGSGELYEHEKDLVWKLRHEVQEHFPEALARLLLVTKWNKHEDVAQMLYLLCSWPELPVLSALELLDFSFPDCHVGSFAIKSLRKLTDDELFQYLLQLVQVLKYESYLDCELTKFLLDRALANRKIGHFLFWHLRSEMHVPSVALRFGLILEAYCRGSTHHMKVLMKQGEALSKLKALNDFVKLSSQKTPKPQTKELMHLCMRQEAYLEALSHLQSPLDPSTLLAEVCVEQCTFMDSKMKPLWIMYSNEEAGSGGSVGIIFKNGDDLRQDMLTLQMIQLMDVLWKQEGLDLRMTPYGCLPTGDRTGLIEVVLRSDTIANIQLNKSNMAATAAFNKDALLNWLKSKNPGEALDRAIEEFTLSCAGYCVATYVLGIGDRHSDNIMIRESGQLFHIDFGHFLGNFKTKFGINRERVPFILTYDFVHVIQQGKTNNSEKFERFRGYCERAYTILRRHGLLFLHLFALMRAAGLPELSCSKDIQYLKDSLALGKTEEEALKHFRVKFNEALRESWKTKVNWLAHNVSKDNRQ
Sequence of PIK3CB (Human) (P42338 whole entry, looked up): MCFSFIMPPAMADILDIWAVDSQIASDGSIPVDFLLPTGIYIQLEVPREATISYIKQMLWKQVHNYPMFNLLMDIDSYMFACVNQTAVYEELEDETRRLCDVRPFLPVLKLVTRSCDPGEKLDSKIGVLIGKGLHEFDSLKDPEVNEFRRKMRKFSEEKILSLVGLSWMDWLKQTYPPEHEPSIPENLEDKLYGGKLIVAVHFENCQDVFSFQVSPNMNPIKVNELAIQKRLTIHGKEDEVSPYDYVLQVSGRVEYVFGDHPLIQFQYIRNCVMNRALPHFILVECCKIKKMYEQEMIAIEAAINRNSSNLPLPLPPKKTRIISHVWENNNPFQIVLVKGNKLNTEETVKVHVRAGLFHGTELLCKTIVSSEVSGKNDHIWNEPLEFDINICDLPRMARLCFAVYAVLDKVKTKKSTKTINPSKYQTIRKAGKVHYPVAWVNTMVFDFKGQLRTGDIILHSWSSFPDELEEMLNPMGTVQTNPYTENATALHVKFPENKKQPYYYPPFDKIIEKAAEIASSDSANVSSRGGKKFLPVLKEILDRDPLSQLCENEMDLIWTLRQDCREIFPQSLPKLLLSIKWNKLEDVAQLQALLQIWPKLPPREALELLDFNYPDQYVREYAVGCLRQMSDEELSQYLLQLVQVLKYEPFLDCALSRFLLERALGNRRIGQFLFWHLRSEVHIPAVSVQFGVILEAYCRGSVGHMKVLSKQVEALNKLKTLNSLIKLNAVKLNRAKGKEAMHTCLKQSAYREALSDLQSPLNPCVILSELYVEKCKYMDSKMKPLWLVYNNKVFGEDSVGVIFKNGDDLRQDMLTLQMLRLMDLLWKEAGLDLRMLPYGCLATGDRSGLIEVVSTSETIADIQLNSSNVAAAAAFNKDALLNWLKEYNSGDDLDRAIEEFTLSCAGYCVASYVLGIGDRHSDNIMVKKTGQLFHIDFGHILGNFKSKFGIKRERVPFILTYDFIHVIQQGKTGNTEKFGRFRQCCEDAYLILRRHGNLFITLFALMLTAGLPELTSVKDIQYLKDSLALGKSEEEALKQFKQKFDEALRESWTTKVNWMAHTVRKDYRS
Sequence of PIK3CG (human) (P48736 whole entry, looked up): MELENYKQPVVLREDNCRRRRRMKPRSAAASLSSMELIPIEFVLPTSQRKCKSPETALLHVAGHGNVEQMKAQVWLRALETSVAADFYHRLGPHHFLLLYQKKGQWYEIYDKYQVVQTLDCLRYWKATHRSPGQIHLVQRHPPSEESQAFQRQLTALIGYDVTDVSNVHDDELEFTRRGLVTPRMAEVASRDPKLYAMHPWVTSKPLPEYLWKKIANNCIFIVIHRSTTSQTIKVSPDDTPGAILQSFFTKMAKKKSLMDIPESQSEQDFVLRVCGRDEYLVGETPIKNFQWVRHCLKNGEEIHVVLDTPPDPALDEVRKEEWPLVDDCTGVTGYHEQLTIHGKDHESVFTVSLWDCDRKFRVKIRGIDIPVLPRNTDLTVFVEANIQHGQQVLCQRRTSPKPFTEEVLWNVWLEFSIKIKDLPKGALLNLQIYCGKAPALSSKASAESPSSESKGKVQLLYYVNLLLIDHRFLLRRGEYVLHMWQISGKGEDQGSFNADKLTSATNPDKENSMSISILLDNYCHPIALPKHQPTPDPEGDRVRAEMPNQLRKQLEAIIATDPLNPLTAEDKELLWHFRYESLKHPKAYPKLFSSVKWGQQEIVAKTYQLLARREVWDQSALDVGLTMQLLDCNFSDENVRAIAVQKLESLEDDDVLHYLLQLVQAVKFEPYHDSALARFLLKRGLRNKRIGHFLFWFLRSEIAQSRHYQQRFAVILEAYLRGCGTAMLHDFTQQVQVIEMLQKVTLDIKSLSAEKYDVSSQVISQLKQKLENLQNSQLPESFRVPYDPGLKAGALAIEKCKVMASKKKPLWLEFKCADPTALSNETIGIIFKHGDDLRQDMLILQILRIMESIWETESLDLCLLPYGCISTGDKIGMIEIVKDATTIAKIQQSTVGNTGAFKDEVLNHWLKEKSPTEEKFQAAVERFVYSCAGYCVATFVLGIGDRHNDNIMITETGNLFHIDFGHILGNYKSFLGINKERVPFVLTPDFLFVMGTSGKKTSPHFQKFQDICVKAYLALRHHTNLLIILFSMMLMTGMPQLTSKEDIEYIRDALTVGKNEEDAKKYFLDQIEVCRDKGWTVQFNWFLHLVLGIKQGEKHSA

The IC50 is the concentration that inhibits the measured activity by half. Read a low IC50 as higher potency. For `C[C@H](Nc1ncnc2scnc12)c1cc2cccc(-c3cncc(N)c3)c2c(=O)n1-c1ccccc1`, the IC50 against PIK3CB (Human) [1] was greater than 10 µM; on PIK3CD (Human) [2], less than 0.1 µM; at PIK3CG (human), 0.1 to 1 µM; against PIK3CD (Human) [3], less than 0.1 µM.

Regarding `CC(C)n1c([C@H](C)Nc2ncnc3scnc23)cc2cccc(-c3ccnnc3)c2c1=O`, the IC50 was greater than 10 µM on PIK3CA (human) [4]; greater than 10 µM against PIK3CB (Human) [1]; 0.1 to 1 µM at PIK3CD (Human) [2]; greater than 10 µM against PIK3CG (human); less than 0.1 µM against PIK3CD (Human) [3].

`C[C@H](Nc1ncnc2scnc12)c1cc2cccc(-c3cnn(C)c3)c2c(=O)n1-c1ccccc1`: the IC50 on PIK3CA (human) [4] is 0.1 to 1 µM; on PIK3CD (Human) [2], less than 0.1 µM; against PIK3CG (human), less than 0.1 µM; on PIK3CA (human) [5] it was 0.1 to 1 µM; on PIK3CD (Human) [3], less than 0.1 µM.

As for `COc1ncc(-c2cccc3cc([C@H](C)Nc4ncnc5scnc45)n(-c4ccon4)c(=O)c23)cn1`, the IC50 was less than 0.1 µM against PIK3CD (Human) [2]; 0.1 to 1 µM on PIK3CG (human); 0.1 to 1 µM against PIK3CA (human) [5]; 0.1 to 1 µM on PIK3CB (Human) [6]; less than 0.1 µM against PIK3CD (Human) [3].

Regarding `C[C@H](Nc1ncnc2scnc12)c1cc2cccc(Cl)c2c(=O)n1-c1ccon1`, the IC50 is greater than 10 µM at PIK3CA (human) [4]; 0.1 to 1 µM at PIK3CB (Human) [1]; less than 0.1 µM against PIK3CD (Human) [2]; 0.1 to 1 µM against PIK3CG (human); less than 0.1 µM against PIK3CD (Human) [3].

Turning to `CC(C)n1c([C@H](C)Nc2ncnc3scnc23)cc2cccc(-c3ccc(=O)n(C)c3)c2c1=O`, the IC50 against PIK3CD (Human) [2] is less than 0.1 µM; on PIK3CG (human), 0.1 to 1 µM; against PIK3CA (human) [5], 0.1 to 1 µM; against PIK3CB (Human) [6] it was 0.1 to 1 µM; against PIK3CD (Human) [3], less than 0.1 µM.

As to `COc1ncc(-c2cccc3cc([C@H](C)Nc4ncnc5scnc45)n(-c4ccccc4)c(=O)c23)cn1`, the IC50 at PIK3CD (Human) [2], on PIK3CG (human) and on PIK3CD (Human) [3] was less than 0.1 µM throughout.

For `Cc1ncc(-c2cccc3cc([C@H](C)Nc4ncnc5scnc45)n(-c4ccon4)c(=O)c23)cn1`, the IC50 against PIK3CA (human) [4] is greater than 10 µM; against PIK3CB (Human) [1], greater than 10 µM; against PIK3CD (Human) [2], 0.1 to 1 µM; against PIK3CG (human), greater than 10 µM; on PIK3CD (Human) [3] it was less than 0.1 µM.
